{"source": "patent US11649218B2", "about": "“C-Abl tyrosine kinase inhibitory compound embodiments and methods of making and using the same” (The USA, as represented by the Secretary, Dept. of Health …, priority 2018, dated 2023)", "key": {"[1]": {"experiment": "Pharmacokinetic profile in plasma", "assay_type": "in vivo, mice", "settings": "12.5 mg/kg IP"}, "[2]": {"experiment": "Pharmacokinetic profile in brain", "assay_type": "in vivo, mice", "settings": "12.5 mg/kg IP"}, "[3]": {"tested_on": "Leukemia K562 cell", "experiment": "Leukemia K562 cell proliferation/viability assay (CellTiterGlo, 48 hours)", "assay_type": "cell-based", "parameters": "unit not given here", "settings": "K562 cells", "description": "C-Abl is encoded by the ABL1 gene (NCBI Gene ID NO. 25). […] Assays for determining if a small molecule inhibits c-Abl activity are known. Non-limiting examples include cell proliferation assays using cancer cells that are BCR-Abl positive and depend on BCR-Abl for growth, such as the leukemia cell line K562. […] In some embodiments described herein, compounds are tested for ability to reduce K562 cell proliferation in an HTS adapted assay which measures cell viability using the reagent CellTiterGlo after 48 hours treatment."}, "[4]": {"tested_on": "P. falciparum strain NF54 asexual parasites", "experiment": "Asexual stage parasite growth inhibition, SYBR Green assay, 72 hours", "assay_type": "cell-based", "settings": "NF54, 72 hours; for IC50: Plasmodium falciparum", "description": "In this example, several of the c-Abl inhibitors were tested in the asexual […] strain of P. falciparum parasites for activity against malaria. […] The pre-diluted parasites were dispensed into a 1536-well plate (2.5 μL/well). […] The fluorescence of each well was measured at 520 nm following excitation at 490 nm using a ViewLux platereader (PerkinElmer)."}}}
{"smiles": "O=C(Nc1ccc(OC(F)(F)Cl)cc1)c1cnc(N2CC[C@@H](O)C2)c(-c2ccn[nH]2)c1", "note": "[ABL001]", "values": [{"measurement": "Plasma concentration", "setting": "[1]; Time 0.167", "value": 5.454, "unit": "µM"}, {"measurement": "Plasma concentration", "setting": "[1]; Time 0.5", "value": 9.137, "unit": "µM"}, {"measurement": "Plasma concentration", "setting": "[1]; Time 1", "value": 11.174, "unit": "µM"}, {"measurement": "Plasma concentration", "setting": "[1]; Time 1.5", "value": 10.189, "unit": "µM"}, {"measurement": "Plasma concentration", "setting": "[1]; Time 2", "value": 5.483, "unit": "µM"}, {"measurement": "Plasma concentration", "setting": "[1]; Time 4", "value": 1.628, "unit": "µM"}, {"measurement": "Plasma concentration", "setting": "[1]; Time 7", "value": 0.399, "unit": "µM"}, {"measurement": "Plasma concentration", "setting": "[1]; Time 24", "value": 0.007, "unit": "µM"}, {"measurement": "Brain concentration", "setting": "[2]; Time 0.167", "value": 0.330, "unit": "µmol/kg"}, {"measurement": "Brain concentration", "setting": "[2]; Time 0.5", "value": 0.534, "unit": "µmol/kg"}, {"measurement": "Brain concentration", "setting": "[2]; Time 1", "value": 0.597, "unit": "µmol/kg"}, {"measurement": "Brain concentration", "setting": "[2]; Time 1.5", "value": 0.442, "unit": "µmol/kg"}, {"measurement": "Brain concentration", "setting": "[2]; Time 2", "value": 0.336, "unit": "µmol/kg"}, {"measurement": "Brain concentration", "setting": "[2]; Time 4", "value": 0.119, "unit": "µmol/kg"}, {"measurement": "Brain concentration", "setting": "[2]; Time 7", "value": 0.056, "unit": "µmol/kg"}, {"measurement": "Brain concentration", "setting": "[2]; Time 24", "value": 0.003, "unit": "µmol/kg"}]}
{"smiles": "NC(=O)c1cccc(-c2cc(Nc3ccc(OC(F)(F)F)cc3)ncn2)c1", "note": "[GNF-2]", "values": [{"measurement": "Efficacy", "setting": "[3]", "value": "−85.2"}, {"measurement": "% Killing", "setting": "[4]", "value": 86.0, "unit": "%"}, {"measurement": "IC50", "setting": "[4]", "value": 1.4, "unit": "µM"}]}
{"smiles": "O=C1Nc2cc(OC(F)(F)F)ccc2Oc2ccc(CCCB(O)O)cc21", "note": "[NCGC00390142, (3-(11-Oxo-8-(trifluoromethoxy)-10,11-dihydrodibenzo[b,f][1,4]oxazepin-2-yl)propyl)boronic acid]", "values": [{"measurement": "Efficacy", "setting": "[3]", "value": "−103.4"}]}
{"smiles": "O=C1Nc2cc(OC(F)(F)F)ccc2Oc2ccc(-c3cnc4ccnn4c3)cc21", "note": "[NCGC00409812, 2-(pyrazolo[1,5-a]pyrimidin-6-yl)-8-(trifluoromethoxy)dibenzo[b,f][1,4]oxazepin-11(10H)-one]", "values": [{"measurement": "Efficacy", "setting": "[3]", "value": "−69.0"}]}
{"smiles": "O=C1Nc2cc(OC(F)(F)F)ccc2Oc2ccc(-c3ccnc(N4CCOCC4)c3)cc21", "note": "[NCGC00411866, 2-(2-Morpholinopyridin-4-yl)-8-(trifluoromethoxy)dibenzo[b,f][1,4]oxazepin-11(10H)-one]", "values": [{"measurement": "% Killing", "setting": "[4]", "value": 92.9, "unit": "%"}, {"measurement": "IC50", "setting": "[4]", "value": 9.69, "unit": "µM"}]}
{"smiles": "O=C1Nc2cc(OC(F)(F)F)ccc2Oc2ccc(-c3cccc(-c4ccn[nH]4)c3)cc21", "note": "[NCGC00411874, 2-(3-(1H-Pyrazol-5-yl)phenyl)-8-(trifluoromethoxy)dibenzo[b,f][1,4]oxazepin-11(10H)-one]", "values": [{"measurement": "Efficacy", "setting": "[3]", "value": "−84.3"}]}
{"smiles": "CC(C)(O)c1cccc(-c2ccc3c(c2)C(=O)Nc2cc(OC(F)(F)F)ccc2O3)c1", "note": "[NCGC00411876, 2-(3-(2-Hydroxypropan-2-yl)phenyl)-8-(trifluoromethoxy)dibenzo[b,f][1,4]oxazepin-11(10H)-one]", "values": [{"measurement": "Efficacy", "setting": "[3]", "value": "−86.3"}]}
{"smiles": "O=C1Nc2cc(OC(F)(F)F)ccc2Oc2ccc(-c3cccc(B(O)O)c3)cc21", "note": "[NCGC00415019, (3-(11-Oxo-8-(trifluoromethoxy)-10,11-dihydrodibenzo[b,j][1,4]oxazepin-2-v)phenyl)boronic acid]", "values": [{"measurement": "Efficacy", "setting": "[3]", "value": "−79.0"}]}
{"smiles": "O=C1Nc2cc(OC(F)(F)F)ccc2Oc2ccc(-c3cccc(CO)c3)cc21", "note": "[NCGC00415061, 2-(3-(Hydroxymethyl)phenyl)-8-(trifluoromethoxy)dibenzo[b,f][1,4]oxazepin-11(10H)-one]", "values": [{"measurement": "Efficacy", "setting": "[3]", "value": "−71.4"}]}
{"smiles": "O=C1Nc2cc(OC(F)(F)F)ccc2Oc2ccc(-c3cccc(-c4nn[nH]n4)c3)cc21", "note": "[NCGC00420743, 2-(3-(2H-Tetrazol-5-yl)phenyl)-8-(trifluoromethoxy)dibenzo[b,f][1,4]oxazepin-11(10H)-one]", "values": [{"measurement": "Efficacy", "setting": "[3]", "value": 0.0}]}
{"smiles": "N#Cc1ccc2c(c1)NC(=O)c1cc(-c3ccnc(N4CCOCC4)c3)ccc1O2", "note": "[NCGC00481503, 2-(2-Morpholinopyridin-4-yl)-11-oxo-10,11-dihydrodibenzo[b,f][1,4]oxazepine-8-carbonitrile]", "values": [{"measurement": "Efficacy", "setting": "[3]", "value": "−80.5"}]}
{"smiles": "O=C1Nc2cc(OCC(F)(F)F)ccc2Oc2ccc(-c3ccnc(N4CCOCC4)c3)cc21", "note": "[NCGC00481504, 2-(2-Morpholinopyridin-4-yl)-8-(2,2,2-trifluoroethoxy)dibenzo[b,f][1,4]oxazepin-11(10H)-one]", "values": [{"measurement": "Efficacy", "setting": "[3]", "value": "−85.1"}]}
{"smiles": "O=C1Nc2cc(C(F)(F)F)ccc2Oc2ccc(-c3ccnc(N4CCOCC4)c3)cc21", "note": "[NCGC00481506, 2-(2-Morpholinopyridin-4-yl)-8-(trifluoromethyl)dibenzo[b,f][1,4]oxazepin-11(10H)-one]", "values": [{"measurement": "Efficacy", "setting": "[3]", "value": "−87.5"}]}
{"smiles": "O=C1Nc2cc(OCCC(F)(F)F)ccc2Oc2ccc(-c3ccnc(N4CCOCC4)c3)cc21", "note": "[NCGC00481507, 2-(2-Morpholinopyridin-4-yl)-8-(3,3,3-trifluoropropoxy)dibenzo[b,f][1,4]oxazepin-11(10H)-one]", "values": [{"measurement": "Efficacy", "setting": "[3]", "value": "−85.5"}]}
{"smiles": "O=C1Nc2cc(OC(F)(F)F)ccc2[S+]([O-])c2ccc(-c3ccnc(N4CCOCC4)c3)cc21", "note": "(centres unmarked) [NCGC00482446, 2-(2-Morpholinopyridin-4-yl)-8-(trifluoromethoxy)dibenzo[b,f][1,4]thiazepin-11(10H)-one 5-oxide]", "values": [{"measurement": "Efficacy", "setting": "[3]", "value": "−83.3"}]}
{"smiles": "O=C1Nc2cc(OC(F)(F)F)ccc2Sc2ccc(-c3ccnc(N4CCOCC4)c3)cc21", "note": "[NCGC00482456, 2-(2-Morpholinopyridin-4-yl)-8-(trifluoromethoxy)dibenzo[b,f][1,4]thiazepin-11(10H)-one]", "values": [{"measurement": "Efficacy", "setting": "[3]", "value": "−85.7"}]}
{"smiles": "O=C1Nc2cc(OC(F)(F)F)ccc2S(=O)(=O)c2ccc(-c3ccnc(N4CCOCC4)c3)cc21", "note": "[NCGC00483140, 2-(2-Morpholinopyridin-4-yl)-8-(trifluoromethoxy)dibenzo[b,f][1,4]thiazepin-11(10H)-one 5,5-dioxide]", "values": [{"measurement": "Efficacy", "setting": "[3]", "value": "−87.2"}]}
